In patent publication US6638952B1, “Aromatic sulfonyl alpha-cycloamino hydroxamic acid compounds” (Pharmacia Corporation, priority 1997, dated 2003):
Where a name gives a salt, the structure may show the parent alone.

Tests used:
recombinant human MMP-1 = biological target: T1, recombinant human MMP-1 (Homo sapiens, UniProt P03956); assay: In vitro metalloprotease inhibition, fluorogenic peptide substrate; format: biochemical; settings: for IC50: APMA-activated enzyme, room temperature, pH 7.5, substrate 4 μM
T1 construct: made in house; host or cells: transfected HT-1080 cells (provided by Dr. Howard Welgus, Washington University)
T1 sequence (P03956 100-469): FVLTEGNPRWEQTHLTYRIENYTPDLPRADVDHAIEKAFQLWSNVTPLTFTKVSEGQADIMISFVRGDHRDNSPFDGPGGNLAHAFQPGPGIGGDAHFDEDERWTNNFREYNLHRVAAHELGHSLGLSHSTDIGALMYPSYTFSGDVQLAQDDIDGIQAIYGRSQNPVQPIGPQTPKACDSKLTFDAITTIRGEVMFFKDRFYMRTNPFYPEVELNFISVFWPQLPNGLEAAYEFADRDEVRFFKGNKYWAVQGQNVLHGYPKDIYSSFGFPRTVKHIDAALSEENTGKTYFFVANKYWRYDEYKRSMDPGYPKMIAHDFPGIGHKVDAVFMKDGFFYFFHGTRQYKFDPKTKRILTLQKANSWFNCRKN
Excerpt: (§1) MMP-13 was expressed in baculovirus as a proenzyme, and purified first over a heparin agarose column and then over a chelating zinc chloride column. The proenzyme was activated by APMA for use in the assay. […] The enzyme was also activated using APMA and was then purified over a hydroxamic acid column.

recombinant human MMP-13 = biological target: T2, recombinant human MMP-13 (Homo sapiens, UniProt P45452); assay: as above; format: biochemical; settings: for IC50: APMA-activated enzyme, room temperature, pH 7.5, substrate 4 μM
T2 construct: made in house
Excerpt: as §1

[1] = system: neovascularization of the corneal stroma; assay: In vivo angiogenesis assay (corneal micropocket); settings: mouse cornea, bFGF/sucralfate pellet, daily dosing, scored at day five; exemplary dose 50 mg/kg bid, po
Method: The study of angiogenesis depends on a reliable and reproducible model for the stimulation and inhibition of a neovascular response. The corneal micropocket assay provides such a model of angiogenesis in the cornea of a mouse.
In this assay, uniformly sized Hydron™ pellets containing bFGF and sucralfate were prepared and surgically implanted into the stroma mouse cornea adjacent to the temporal limbus. The pellets were formed by making a suspension of 20 μL sterile saline containing 10 μg recombinant bFGF, 10 mg of sucralfate and 10 μL of 12 percent Hydron™ in ethanol. The slurry was then deposited on a 10×10 mm piece of sterile nylon mesh. […]
Mice were dosed on a daily basis for the duration of the assay. […] At day five, the degree of angiogenic inhibition was scored by viewing the neovascular progression with a slit lamp microscope.
The mice were anesthetized and the studied eye was once again proptosed. The maximum vessel length of neovascularization, extending from the limbal vascular plexus toward the pellet was measured. In addition, the contiguous circumferential zone of neovascularization was measured as clock hours, where 30 degrees of arc equals one clock hour. The area of angiogenesis was calculated as follows. […]
The studied mice were thereafter compared to control mice and the difference in the area of neovascularization was recorded.

[2] = system: solid tumor cancers (colorectal, pancreatic, ovarian, prostate); settings: patients, cited from earlier work

With `Cl.O=C(Nc1ccc(S(=O)(=O)CC2(C(=O)NO)CCNCC2)cc1)c1ccccc1` [Example 1, N-hydroxy-4-[[[4-(benzoylamino)phenyl]sulfonyl]methyl]-4-piperidinecarboxamide, monohydrochloride] the IC50 (recombinant human MMP-1) was > 10000 nM, the “activity against MMP-1 (in words)” value (recombinant human MMP-1; comment on Table 13) was “virtually unbound” and the IC50 (recombinant human MMP-13) was 243 nM. The “activity against MMP-13 (in words)” value (recombinant human MMP-13; comment on Table 13) was “moderate activity”.
With `O=C(NO)C1(CS(=O)(=O)c2ccc(Oc3ccccc3)cc2)CCN(CCc2ccccc2)CC1` [Example 2, N-Hydroxy-4-[[(4-phenoxyphenyl)sulfonyl]-methyl]-1-(2-phenylethyl)-4-piperidinecarboxamide, Monohydrochloride] the IC50 (recombinant human MMP-1) was 700 nM.
Molecule `COc1cccc(CN2CCC(CS(=O)(=O)c3ccc(Oc4ccccc4)cc3)(C(=O)NO)CC2)c1` [Example 3, N-Hydroxy-1-[(3-methoxyphenyl)methyl]-4-[[(4-phenoxyphenyl)sulfonyl]methyl]-4-piperidinecarboxamide, Monohydrochloride] has an IC50 (recombinant human MMP-1) of 330 nM and an IC50 (recombinant human MMP-13) of 0.4 nM.
`C#CCN1CCC(CS(=O)(=O)c2ccc(Oc3ccccc3)cc2)(C(=O)NO)CC1` [Example 4, N-Hydroxy-4-[[(4-phenoxyphenyl)sulfonyl]-methyl]-1-(2-propynyl)-4-piperidinecarboxamide, Monohydrochloride] gave an IC50 (recombinant human MMP-1) of 485 nM and an IC50 (recombinant human MMP-13) of 0.6 nM.
Work on `CC(C)(C)OC(=O)N1CCC(CS(=O)(=O)c2ccc(Oc3ccccc3)cc2)(C(=O)NO)CC1` [Example 5, 1,1-Dimethylethyl Ester 4-[(Hydroxyamino)-carbonyl]-4-[[(4-phenoxyphenyl]sulfonyl]methyl]-1-piperidinecarboxylic Acid] yielded an IC50 (recombinant human MMP-1) of 475 nM and an IC50 (recombinant human MMP-13) of 0.2 nM.
In the case of `Cl.O=C(NO)C1(CS(=O)(=O)c2ccc(Oc3ccccc3)cc2)CCNCC1` [Example 6, N-Hydroxy-4-[[(4-phenoxyphenyl)sulfonyl]-methyl]-4-piperidinecarboxamide, Monohydrochloride], the “inhibition of area of neovascularization versus control mice” value [1] is reported as 80.0%, the IC50 (recombinant human MMP-1) is reported as 2400 nM and the IC50 (recombinant human MMP-13) is reported as 8 nM.
`C#CCN1CCC(CS(=O)(=O)c2ccc(Oc3ccc(C)c(C)c3)cc2)(C(=O)NO)CC1` [Example 7, N-Hydroxy-4-[[[4-(3,4-dimethylphenoxy)phenyl]sulfonyl]-methyl]-1-(2-propynyl)-4-piperidinecarboxamide, Monohydrochloride] gave an IC50 (recombinant human MMP-13) of 0.85 nM.
Molecule `C#CCN1CCCC1(CS(=O)(=O)c1ccc(Oc2ccccc2)cc1)C(=O)NO` (stereo not drawn) [Example 8, N-Hydroxy-2-[[(4-phenoxyphenyl)sulfonyl]-methyl]-1-(2-propynyl)-2-pyrrolidine Carboxamide, Monohydrochloride] has an IC50 (recombinant human MMP-13) of 1.3 nM.
For `CNC(=O)[C@@H](NC(=O)[C@H](CC(C)C)[C@H](O)C(=O)NO)C(C)(C)C` [marimastat], the “effect on cancer-specific antigens used as surrogate markers for biological activity” value ([2]; Phase I/II studies, meta analysis) is listed as “dose-related reduction in the rise of cancer-specific antigens” and the “most common drug-related toxicity” value ([2]; clinical trials) is listed as “musculoskeletal pain and stiffness”.
